Results: US20120244568A1, “LABEL-FREE RIGID CELL ASSAY METHOD” (priority 2011, published 2012)
Read-outs that look alike come from different tables or passages of the source.

Key:
Assay type in all cases: cell-based
[1] = test system: Saccharomyces cerevisiae S288C yeast cells; assay: turbidometric determination with a visible light spectrophotometer (absorbance OD580) of DRCA assay samples; conditions: 10 micromolar, FIG. 7
Excerpt: FIG. 7 charts absorbance readings of a conventional turbidometric determination using a visible light spectrophotometer, for cultured yeast cells without amphotericin (left; amphotericin at 0 micromolar) and contacted with amphotericin (right; amphotericin at 10 micromolar). Turbidity can be used as an indirect measure of cell growth. Using a standard curve generated with serial dilutions of known number cells, one can estimate cell density in a turbid cell culture.
(§1) The samples from the aforementioned DRCA assay were further analyzed with a spectrophotometer (Agilent Technologies, Wilmington, Del.) and hemocytometer (Thermo Fisher Scientific, Hudson, N.H.). […] With amphotericin treatment, the cell number was about zero, compared to about 12,000,000 cells in the untreated sample, see FIG. 8 (yeast cell count by hemocytometer) for amphotericin (80) and no amphotericin (82) at each of three wavelengths.

[2] = test system: Saccharomyces cerevisiae S288C yeast cells; assay: yeast cell count by hemocytometer of DRCA assay samples; conditions: with amphotericin treatment; FIG. 8; untreated sample about 12,000,000 cells
Excerpt: as §1

[3] = test system: Saccharomyces cerevisiae S288C yeast cells; assay: label-free DRCA multi-wavelength SPR yeast cell assay (response to a substance)
[4] = test system: Saccharomyces cerevisiae S288C yeast cells; assay: as above; conditions: 10 micromolar; for effect on yeast cell growth: 4,000 cells per well, pre-incubated 60 minutes; for effect on yeast cell growth / effect on yeast cell growth measured at short penetration depth: FIG. 4; for effect on yeast cell growth compared with the other modulators: consistent at three different penetration depths, versus fluconazole and ketaconazole; for effect on yeast cell growth measured at short penetration depth: 660 nm laser source
Procedure: Yeast cells were cultured on an YPD agar plate at 28° C. for 16 hours and kept at 4° C. until just prior to use. From the agar plate, yeast cells were collected and seeded into YPD liquid medium and cultured at 28° C. for 8 hours. The cells were then diluted with its liquid medium to obtain a cell density of about 4,000 cells/mL as a starting point for cell inhibition studies. For the detection of yeast cells, the cells were collected at the late logarithm phase and collected by centrifugation at 10,000 g for 10 minutes. Cells were further washed to remove debris and/or high index material such as glucose.
A DRCA™ system equipped with three lasers having wavelengths of, for example, 660 nm, 980 nm, and 1480 nm, was selected for the study. The system allows for simultaneously measuring a cell at three different wavelengths. The output measures the angular change of the surface plasmon resonance (SPR). The angular change indicates a mass change within the defined sensing region. The depth of the sensing region depends on the wavelength of the selected illuminating laser as listed, for example, in Table 1.
A user-assembled assay plate was first assembled with a gold coated glass slide and an 80-well holey plate (cut from a 384-well holey plate). Yeast cells were seeded into the wells with or without a compound and incubated in the instrument for approximately 60 minutes at 22° C. The cell responses were then measured and data were collected according to the description in the aforementioned U.S. Ser. No. 12/956,464.
A procedure for accomplishing a label-free rigid cell assay response to a substance in accord with the present disclosure can include, for example: • 1. clean and assemble an 80-well holey plate on top of a gold chip; • 2. sterile the assembled chip by exposure to high intensity UV light for around 5 minutes; • 3. grow yeast cells until the middle or late logarithm stage, preferably the former for an active inoculum; • 4. turn on the DRCA optical system to warm-up the lasers for, e.g., 1 hour; • 5. collect yeast cell by centrifugation at, e.g., 10,000 g for 10 minutes; • 6. wash the cells with at least 5× fold volume of the pellet using a saline buffer, such as phosphate saline buffer; • 7. vortex the cell solution using, for example, a bench top vortex mixer; • 8. collect yeast cells by centrifugation at e.g. 10,000 g for 10 minutes; • 9. repeat steps 6 to 8 for approximately three (3) times to remove high refractive index materials, such as, sugar residues, cell debris, or like materials, and mixtures thereof; • 10. count yeast cell number using, e.g., a hemocytometer • 11. prepare assay buffer with or without a substance (compound/bio-molecule); • 12. load assay buffer with or without a substance (compound/bio-molecule) to each well of the cell chamber and let it equilibrate for, e.g., 60 minutes; • 13. record the baselines for, e.g., 15 minutes; • 14. add a small amount of yeast cells, such as 4000 cells/mL to each well; • 15. monitor the yeast cell response, for example, to an added substance, with a plurality of wavelengths and depths; • 16. record the data; and • 17. analyze the data by calculating the difference between the end points and baselines.
Four modulator compounds were used to study of their effect on yeast cells. A user assembled (i.e., a virtual) assay plate was seeded with 4,000 cells per well. A modulator was added to a test well at 10 micromolar and then pre-incubated for 60 minutes. Each modulator was tested in three replicates. The well without a modulator was a positive control. […] However, the difference between the modulators and controls was more substantial when measured at the longest penetration depth using the 1480 nm laser source. […] Accordingly, the disclosed method can be useful for drug screening, drug development, and like applications.
Time course of a modulator effect. The effect of an amphotericin compound on yeast cells was monitored in real time under ambient condition. […]

SMILES | cell growth by turbidity [1] | OD580 absorbance reading ([1]; untreated sample about 12) | cell number [2] | IC50 ([3]; read-out: IC50 (inhibition curve, yeast cells), 660 nm wavelength, about 4000 cells/well, 3,000 nM serially diluted at 3 fold, R^2=0.9072) [µM] | IC50 ([3]; read-out: IC50 (inhibition curve, yeast cells), 980 nm wavelength, about 4000 cells/well, 3,000 nM serially diluted at 3 fold, R^2=0.9486) [µM] | IC50 ([3]; read-out: IC50 (inhibition curve, yeast cells), 1480 nm wavelength, about 4000 cells/well, 3,000 nM serially diluted at 3 fold, R^2=0.9817) [µM] | effect on yeast cell growth [4] | change in response over time (time course) ([4]; about 16 hours, any given penetration depth (660, 980, 1480 nm), FIG. 5) | effect on yeast cell growth compared with the other modulators [4] | effect on yeast cell growth measured at short penetration depth [4]
C[C@@H]1[C@H](O)[C@@H](C)/C=C/C=C/C=C/C=C/C=C/C=C/C=C/[C@H](O[C@@H]2O[C@H](C)[C@@H](O)[C@H](N)[C@@H]2O)C[C@@H]2O[C@](O)(C[C@@H](O)C[C@@H](O)[C@H](O)CC[C@@H](O)C[C@@H](O)CC(=O)O[C@H]1C)C[C@H](O)[C@H]2C(=O)O [amphotericin, Amphotericin] | cell growth was inhibited | about zero | about zero | 0.374 | 0.271 | 0.158 | had an effect on yeast cell growth | almost no change in response | more noticeable effect | 
CC(=O)N1CCN(c2ccc(OCC3COC(Cn4ccnc4)(c4ccc(Cl)cc4Cl)O3)cc2)CC1 (stereo not drawn) [ketaconazole] |  |  |  |  |  |  | had an effect on yeast cell growth |  |  | not detectable
Clc1ccccc1C(c1ccccc1)(c1ccccc1)n1ccnc1 [clotrimazole] |  |  |  |  |  |  | had an effect on yeast cell growth |  | more noticeable effect | 
OC(Cn1cncn1)(Cn1cncn1)c1ccc(F)cc1F [fluconazole] |  |  |  |  |  |  | had an effect on yeast cell growth |  |  | not detectable
